From patent publication US20220016196A1, “Aloe Based Compositions Comprising Polysaccharides and Polyphenols for Regulation of Homeostasis of Immunity” (Unigen, Inc., priority 2020, published 2022)

How the values were obtained:
[1] = test system: LPS-induced acute lung injury rats; assay: LPS-induced acute lung injury, lung histopathology (H&E); type: in vivo, rat
Method: The study was designed to evaluate the direct impact of an Aloe-based composition (UP360) made in the Example 9 in alleviating LPS-induced acute lung injury administered orally at 500 mg/kg and 250 mg/kg. […] In this study, we treated rats with the test materials orally for 7 days before model induction with LPS. On the 8th day, an hour after oral treatment, LPS was instilled intratracheally (i.t.) at 10 mg/kg dissolved in 0.1 mL/100 g PBS to each rat. The normal control rats received the same volume i.t. PBS only.
We sacrificed surviving animals 24 hours after intratracheal LPS administration to the rats. At necropsy, collected bronchoalveolar lavage (BAL) by intratracheal injection of 1.5 mL PBS into the right lobe followed by gentle aspiration at least 3 times. Pooled recovered fluid, centrifuged at 1500 rpm for 10 min at 4 ° C., and was used to measure cytokines (e.g. IL-6) and pulmonary protein levels. This same right lobe was collected for tissue homogenization from each rat for MIP-2/CINC-3 protein analysis. The left lobe was fixed with formalin and submitted for histopathology evaluation to Nationwide Histology for analysis by a certified pathologist. Serum collected at necropsy was used to measure cytokines such as TNF-α and IL-1β.
The left lobe of the lung was used for the histopathology analysis.

[2] = test system: LPS-induced septic mice; assay: LPS induced sepsis model, survival/mortality rate; type: in vivo, mouse; settings: for # of Death after LPS: cumulative; for Number of deceased animals post LPS: per interval
Method: CD-1 mice were purchased from a USDA approved vendor. Male CD-1 mice at 8 weeks old were purchased form Charles River Laboratories, Inc. (Wilmington, Mass.). Animals were acclimated upon arrival and used for the study at the age of 11 weeks. At the time of the study animals average weigh 33.6±2.4 grams. They were housed in a temperature-controlled room (71-72° F.) on a 12-hour light-dark cycle and provided with feed and water ad libitum.
This model used a survival/mortality rate of animals as the end point measurement (Wang et al., 1999). LPS, an exogenous assault trigger, is an integral component of the outer membrane of gram-negative bacteria and a major contributing factor in the initiation of a generalized inflammatory process that could lead to endotoxic shock. It is a state mediated principally by macrophages/monocytes attributed to excessive production of several early phase cytokines such as TNF, IL-1, IL-6 and gamma interferon as well as a late stage mediator HMGB1. Following median lethal dose of LPS (25 mg/kg) administration dissolved in Phosphate buffered saline (PBS; Lifeline, Lot #07641), animals develop endotoxemia and HMGB1 would be detected in the serum at 8 hours and reach to a peak and plateau levels from 16 to 32 hours after LPS. If untreated, mice would start to die within 24 hours. In the current study, we monitored the mice for 4 days after LPS injection. The survival/mortality rate compared LPS +Sodium butyrate (SB; Aldrich, St. Louis, Mo.; lot #MKCG7272), LPS+Vehicle (0.5% CMC; Spectrum, New Brunswick, N.J.; lot #1IJ0127) and LPS+UP360 (Aloe based composition comprising polysaccharides and polyphenols made in Example 9). The following groups were included in the study:
In this model, mice were pretreated with UP360 illustrated in the Example 9 for a week (7 days) before lethal dose intraperitoneal injection of LPS (E. coli, 055:B5; Sigma, St. Louis, Mo.; Lot #081275) at 25 mg/kg with a 10 mL/kg PBS volume. Animals were observed hourly. Given the fact that Sodium butyrate improved LPS-induced injury in mice through suppression of HMGB1 release, we chose this compound as a positive control for our study (Li et al., 2018).
Male CD-1 mice (n=13) were treated with Aloe, Poria, and Rosmarinic acid (RA) utilized for making UP360 in Example 9 at 150 mg/kg, 300 mg/kg and 50 mg/kg, respectively, for 7 days before LPS injection. On the 8th day, mice were injected with 25 mg/kg LPS dissolved in PBS at 10 mL/kg intraperitoneally. Mice in the UP360-treated group received a daily dose of UP360 at 500 mg/kg. All mice continued to receive the respective treatment daily for the duration of the study. Following median lethal dose of LPS (25 mg/kg) i.p. administration, animals are expected to develop sepsis within a few hours. If untreated, mice would start to die within 24 hours. Animals were observed hourly. In the current study, we monitored the mice for 6 days after LPS injection. The survival rate compared LPS+Sodium butyrate (SB), LPS+Vehicle (0.5% CMC), LPS+UP360, LPS+Aloe, LPS+Poria and LPS+Rosmarinic acid. Normal control animals received only PBS intraperitoneally and gavaged only with the carrier vehicle 0.5% CMC. Given the fact that Sodium butyrate (SB) improved LPS-induced injury in mice through suppression of HMGB1 release, we chose this compound as a positive control for our study (Li et al., 2018).
The survival rate and mortality rate of the contemplated Aloe-based compositions, including UP360, comprising and, in some embodiments, consisting of polysaccharides and polyphenols was compared with those dosages of individual extracts as they appear in the formulation to find out potential additive, antagonist or synergistic effects in combination using Colby's equation (Colby, 1967). For the blending of these plant extracts to have unexpected synergy, the observed inhibition needs to be greater than the calculated value.

[3] = n=13 study, doses as E61, 24 hr
[4] = n=13 study, doses as E61, 36 hr
[5] = n=13 study, doses as E61, 48 hr
[6] = n=13 study, doses as E61, 60 hr
[7] = n=13 study, doses as E61, 72 hr
[8] = n=13 study, doses as E61, 96 hr
[9] = n=13 study, doses as E61, 120 hr
[10] = n=13 study, doses as E61, 144 hr

## CCCC(=O)[O-].[Na+] [Sodium Butyrate]
[1]; score 0-4, 500 mg/kg
  Infiltration of PMC: 2.75 ± 0.78
  Pulmonary Edema: 2.35 ± 0.95
[1]; score 0-4, H&E left lobe, 500 mg/kg
  Overall lung tissue Severity: 3.05 ± 0.42
[2]; CD-1 mice n=8, LPS 25 mg/kg i.p., 500 mg/kg oral from 7 days before, 24 hr
  # of Death after LPS: 2
[2]; CD-1 mice n=13, LPS 25 mg/kg i.p., oral UP360/SB 500, Aloe 150, Poria 300, RA 50 mg/kg, 24 hpi
  Number of deceased animals post LPS: 2
[2]; mortality rate, n=13 study, doses as E49, end of study
  MR (%): 69.2%
[2]; n=8, LPS 25 mg/kg i.p., 500 mg/kg oral
  # of Death after LPS, Total: 4
[2]; n=8, LPS 25 mg/kg i.p., 500 mg/kg oral, 24 hours after LPS
  survival rate: 75%
[2]; n=8, LPS 25 mg/kg i.p., 500 mg/kg oral, 34 hours after LPS
  survival rate: 62.5%
[2]; n=8, LPS 25 mg/kg i.p., 500 mg/kg oral, 48 hours after LPS
  survival rate: half of the animals were deceased
[2]; n=8, LPS 25 mg/kg i.p., 500 mg/kg oral, 72 hours after LPS
  survival rate: 50%
[2]; n=8, LPS 25 mg/kg i.p., 500 mg/kg oral, 32 hr
  # of Death after LPS: 3
[2]; n=8, LPS 25 mg/kg i.p., 500 mg/kg oral, 34 hr
  # of Death after LPS: 3
[2]; n=8, LPS 25 mg/kg i.p., 500 mg/kg oral, 48 hr
  # of Death after LPS: 4
[2]; n=8, LPS 25 mg/kg i.p., 500 mg/kg oral, 58 hr
  # of Death after LPS: 4
[2]; n=8, LPS 25 mg/kg i.p., 500 mg/kg oral, 72 hr
  # of Death after LPS: 4
[2]; n=8, LPS 25 mg/kg i.p., 500 mg/kg oral, 82 hr
  # of Death after LPS: 4
[2]; n=8, LPS 25 mg/kg i.p., 500 mg/kg oral, final (82 hours, same at 96 and 120 hours)
  Survival rate (%): 50%
[2]; n=13, LPS 25 mg/kg i.p., UP360/Sodium Butyrate 500, Aloe 150, Poria 300, RA 50 mg/kg, 0 hr
  Survival rate (%): 100%
[2]; n=13 study, doses as E49, at 144 hpi
  Survived: 4
[2]; n=13 study, doses as E49, 36 hpi
  Number of deceased animals post LPS: 4
[2]; n=13 study, doses as E49, 48 hpi
  Number of deceased animals post LPS: 1
[2]; n=13 study, doses as E49, 60 hpi
  Number of deceased animals post LPS: 1
[2]; n=13 study, doses as E49, 72 hpi
  Number of deceased animals post LPS: 0
[2]; n=13 study, doses as E49, 96 hpi
  Number of deceased animals post LPS: 1
[2]; n=13 study, doses as E49, 120 hpi
  Number of deceased animals post LPS: 0
[2]; n=13 study, doses as E49, 144 hpi
  Number of deceased animals post LPS: 0
[2]; n=13 study, doses as E49, total over 144 hpi
  Deceased: 9
[2]; n=13 study, doses as E61, 0 hr
  Mortality rate (%): 0.0%
[2]; [3]
  Mortality rate (%): 15.4%
  Survival rate (%): 84.6%
[2]; [4]
  Mortality rate (%): 46.2%
  Survival rate (%): 53.8%
[2]; [5]
  Mortality rate (%): 53.8%
  Survival rate (%): 46.2%
[2]; [6]
  Mortality rate (%): 61.5%
  Survival rate (%): 38.5%
[2]; [7]
  Mortality rate (%): 61.5%
  Survival rate (%): 38.5%
[2]; [8]
  Mortality rate (%): 69.2%
  Survival rate (%): 30.8%
[2]; [9]
  Mortality rate (%): 69.2%
  Survival rate (%): 30.8%
[2]; [10]
  Mortality rate (%): 69.2%
  Survival rate (%): 30.8%
[2]; survival rate, n=13 study, doses as E49, end of study
  SR (%): 30.8%
